Patent US20080220416A1, “Compositions for Inhibiting Cell Growth and Inducing Apoptosis in Cancer Cells and Methods of Use Thereof” (THE BOARD OF TRUSTEES OF THE UNIVERSITY OF ILLINOI, priority 2004, published 2008)
Square brackets hold non-standard residues; d marks the D form. Peptide text beside a SMILES is read from it. * marks the point of attachment. Nle = CCCC[C@H](N)C(=O)O; Cbz = O=C(OCc1ccccc1)*

How the values were obtained:
RPMI8226 myeloma cells = experiment: Apoptosis of myeloma cell line RPMI8226 (Annexin V-FITC); type: cell-based; details: for apoptotic response: after 18 hrs
Description: (§1) The cells were evaluated for induction of NOXA and an increase in cleaved caspase 3, by Western blot analysis and for cell viability using APO TARGET Annexin V-FITC staining kits (Biosource) as described above. The caspase 3 antibody was purchased from Abcam (Cambridge, Mass.). […] At a concentration of 10 μM, bortezomib induces approximately equal NOXA levels compared to the other proteasome inhibitor tested (MG-132) and the dual inhibitor z-Leu-Leu-Nle-CHO. The induction of NOXA coincided with the appearance of cleaved caspase 3, which is involved in the final stage of cell death. […] FIG. 12 is graph showing representative results from bortezomib treatment. The induction of apoptosis is concentration-dependent (FIG. 12); with doses as low as 0.01 μM bortezomib trigger significant apoptosis (p<0.05).

NOXA = NOXA induction in multiple myeloma cell lines (Western blot); type: cell-based; details: RPMI8226 and U266; 24 hours; bortezomib 0.01 to 10 μM, MG-132 10 μM, z-Leu-Leu-Nle-CHO 10 μM
Description: as §1, with “Two different multiple myeloma cell lines (RMP18226 and U266) (ATCC, Rockville, Md.) were treated for 24 hours with various concentrations of the proteasome inhibitors bortezomib (0.01 to 10 μM) and MG-132 (10 μM), or the dual inhibitor z-Leu-Leu-Nle-CHO (10 μM). The cells” for “The cells”

melanoma cell lines = experiment: Proteasome inhibitors, apoptosis of melanoma cell lines (Annexin V FITC flow cytometry); type: cell-based, human
Description: The proteasome inhibitors lactacystin, MG-132, and bortezomib were evaluated for the ability to induce apoptosis in malignant melanoma cell lines (n=3) including an early passage line, RJ002L. MG-132 was obtained from Calbiochem (La Jolla, Calif.) and dissolved in DMSO. Lactacystin was purchased from Sigma Chemical Co. (St. Louis, Mo.) and dissolved in PBS. Bortezomib was obtained from a pharmacy as VELCADE (bortezomib) for Injection from a single use vial for intravenous use only (Millennium Pharmaceuticals, Cambridge, Mass.). A cell line with wild-type p53 (RJ002L) and two melanoma cell lines with mutant p53 alleles (C8161 and MUM2B) were included in this study. Two additional melanoma cell lines were also used: cutaneous SK-MeI-28 cells and primary, early passage MG012 cells. In addition, five normal melanocyte culture cell lines (MC-005, MC-006, MC-008, MC-009 and MC-011) were examined. Prior to testing, the melanoma cell lines were maintained in RPMI supplemented with 10% FBS. Normal human melanocytes were isolated from neonatal foreskins as previously described (Qin J et al., 2004, Mol Cancer Ther 3:895-902, 2004) and cultured with medium 154 containing growth supplements (Cascade Biologics, Portland, Oreg.).
To assess the effect of proteasome inhibitors on the cell lines, the cells were grown in suitable culture media as described above. Highly proliferating cells (i.e., cells that had reached approximately 30% confluency) were exposed to the inhibitors as described below. The culture media was replenished with media containing proteasome inhibitors at various concentrations and the cells were incubated for 24 hours prior to harvesting the cells for further analysis.
Following treatment with the proteasome inhibitors, the melanoma and melanocyte cell cultures were assayed for apoptotic cells using the APO TARGET Annexin V FITC staining kit (Biosource, Camarillo, Calif.) according to the manufacturer's instructions followed by flow cytometric analysis using FACScaliber (Becton Dickinson, Palo Alto, Calif.) as described in Qin, J. et al., 2001, Nat Med 7: 385-386. In some cases, cell cycle and apoptosis analysis was measured using propidium iodide staining and flow cytometry as described. Cells with DNA content less than the G0 amount of untreated cells were considered apoptotic. For cell analysis, DNA histograms were analyzed using MultiCycle for Windows (Phoenix Flow Systems, San Diego, Calif.) as described in Denning, M. F. et al., 1998, J Biol Chem 273: 29995-30002.

| SMILES | apoptotic response (RPMI8226 myeloma cells) | NOXA induction (NOXA) | concentration triggering significant apoptotic response (p<0.05) (melanoma cell lines; all melanoma cell lines examined) [µM] | dead cells (melanoma cell lines; all melanoma cell lines tested, 10 μM, 24 hrs continuous exposure) | lowest dose triggering significant apoptosis (p<0.05) (RPMI8226 myeloma cells) [µM] | apoptotic response to increasing concentrations (melanoma cell lines; RJ002L, MG012, C8161, MUM2B, SK-MeI-28, 1-10 μM, 24 hrs) |
| --- | --- | --- | --- | --- | --- | --- |
| CCCC[C@@H](C=O)NC(=O)[C@H](CC(C)C)NC(=O)[C@H](CC(C)C)NC(=O)OCc1ccccc1 [z-Leu-Leu-Nle-CHO, N-benzyloxycarbonyl-leucyl-leucyl-norleucinal] (Cbz-Leu-Leu-[Nle]-aldehyde) | triggered significant apoptotic response after 18 hrs | found to induce NOXA | – | – | – | – |
| CC(C)C[C@H](NC(=O)[C@H](Cc1ccccc1)NC(=O)c1cnccn1)B(O)O [bortezomib, N-(2-pyrazine)carbonyl-L-phenylalanine-L-leucine boronic acid] | triggered significant apoptotic response after 18 hrs | induces NOXA in a concentration dependent manner | ≥ 0.1 | 30-70% | 0.01 | – |
| CC(C)C[C@@H](C=O)NC(=O)[C@H](CC(C)C)NC(=O)[C@H](CC(C)C)NC(=O)OCc1ccccc1 [MG-132, benzoxycarbonyl-Leucyl-Leucyl-Leucyl-aldehyde] (Cbz-Leu-Leu-Leu-aldehyde) | triggered significant apoptotic response after 18 hrs | found to induce NOXA | – | – | – | significantly enhanced apoptotic responses |
